Results on 1 compound are retold here after US12628829B2, “Compositions comprising recombianant Bacillus cells and an insecticide” (BASF CORPORATION, priority 2014, dated 2026).

The assay relates to Maize. As to the kind of experiment: Plant growth promotion, maize whole plant biomass after soil drench. Type of assay: in vivo. As for the experimental part: For instance, the formula and analysis can be applied to an evaluation of plant growth promotion. Such an assay is evaluated several days after the applications to plants. 100% means plant weight which corresponds to that of the untreated control plant. Efficacy means in this case the additional % of plant weight in comparison to that of the untreated control.
Experiments were conducted to analyze efficacy of a combination of flupyradifurone and a fermentation product of recombinant Bacillus thuringiensis cells expressing phospholipase C (“BEPC”). Maize seeds were grown in sterile mixture of synthetic media and sand in small three-inch square pots on light racks in a plant growth room at 25-28° C. and 50% humidity for about 14 days. Two seeds were planted in each pot. At planting, the growing media in each pot was drenched with the treatments described below. After 14 days, plants were measured for whole plant biomass. In the tables below, UTC refers to untreated control. “Calculated” refers to the expected effect calculated using the above-described Colby equation and “Efficacy” refers to the actual effect observed.
The SIVANTO® product, which contains flupyradifurone as its active ingredient (17.09% flupyradifurone), was diluted in 50 mL water and the diluted solution was used to drench the growing media. The application rate shown below refers to the amount of active ingredient (i.e., flupyradifurone) applied to the growing media.
A recombinant Bacillus cereus family member (Bacillus thuringiensis BT013A) expressing phospholipase C on its exosporium (BEPC) was generated as follows. […]
To obtain whole broth cultures of BEPC, 15 ml conicals containing brain heart infusion media (BHI) were inoculated with BEPC and grown for 7-8 hours at around 30° C. at a shaker setting of 300 rpm. […] After approximately 2 days of incubation, when sporulation was at least 95% completed, the culture broth was harvested and colony forming units calculated. […]

SMILES strings stand for the structures.

Consider `O=C1C=C(N(Cc2ccc(Cl)nc2)CC(F)F)CO1` [Flupyradifurone, flupyradifurone], for which, where the note is “actual effect observed: additional % of plant weight versus UTC, 14 days”, the Efficacy % was determined as 3%. Moreover, the “Whole Plant Biomass” value (growing media drenched at planting, measured after 14 days, flupyradifurone 1.36 mg/pot, BEPC 7 × 10^8 CFU/pot) stood at 3.50 g. Besides, the Found % (plant weight relative to UTC = 100, drench at planting, 14 days) is listed as 103%.
